From publication PMC5722318, “Absence of anti-hypocretin receptor 2 autoantibodies in post pandemrix narcolepsy cases” (PLoS ONE, 2017)
Where two headings read alike, the source gives them in different places.

Test system: DQ0602
Type: binding, human
Settings: for % Read #1 / Read #1: replicate 1; for % Average: mean of two reads; for % Read #2 / Read #2: replicate 2; for Average: mean of the two raw reads; for Read #1 / Read #2: raw signal read
[1] = % of Bio-EBV binding, first assay (02/04/2016, 07/15/2016 or 08/11/2016, by peptide)
[2] = % of Bio-EBV binding, repeat assay (07/19/2016, 07/18/2016 or 08/12/2016, by peptide)
[3] = first assay (02/04/2016, 07/15/2016 or 08/11/2016, by peptide)
[4] = repeat assay (07/19/2016, 07/18/2016 or 08/12/2016, by peptide)

HDSDKGVTAACPH [HA143-155 146D, synthetic 13-mer hemagglutinin peptide containing mutated 146D]
Average (two assays): 86.9741% | % Read #1 (% of Bio-EBV binding (Bio-EBV average = 100), first assay (02/04/2016, 07/15/2016 or 08/11/2016, by peptide)): 75.8456% | % Average [1]: 83.2638% | % Average [2]: 90.6844% | % Read #1 [2]: 90.6154% | % Read #2 [1]: 90.682% | % Read #2 [2]: 90.7533% | Average [3]: 15669 | Average [4]: 15132.5 | Read #1 (first assay (02/04/2016, 07/15/2016 or 08/11/2016, by peptide), competition against Bio-EBV epitope): 14273 | Read #1 [4]: 15121 | Read #2 [3]: 17065 | Read #2 [4]: 15144
